{
  "source": "patent US7010431B2",
  "about": "“Method for effecting computer implemented decision-support in the selection of the drug therapy of patients having a viral disease” (F. Hoffman-LaRoche Ltd., priority 2000, dated 2006)",
  "origin": "cited, not measured here",
  "key": {"[1]": {"system": "HIV protease (P) substitutions", "set-up": "key: 0 (low resistance); 3 (high resistance)"}, "[2]": {"system": "HIV reverse transcriptase (RT) substitutions", "set-up": "key: 0 (low resistance); 3 (high resistance)"}, "[3]": {"conditions": "substitution 48 V, drug level 100"}},
  "note": "Where two headings read alike, the source gives them in different places.",
  "data": [
    {"smiles": "Cc1c(O)cccc1C(=O)N[C@@H](CSc1ccccc1)[C@H](O)CN1C[C@H]2CCCC[C@H]2C[C@H]1C(=O)NC(C)(C)C", "note": "[NFV]", "values": [
      {"measurement": "resistance @ level", "setting": "[1]; substitution 84 + 90 + 46, drug level 100", "result": 3}
    ]},
    {"smiles": "CC(C)(C)NC(=O)[C@@H]1C[C@@H]2CCCC[C@@H]2CN1C[C@@H](O)[C@H](Cc1ccccc1)NC(=O)[C@H](CC(N)=O)NC(=O)c1ccc2ccccc2n1", "note": "[FTV]", "values": [
      {"measurement": "resistance @ level", "setting": "[1]; [3]", "result": 1}
    ]},
    {"smiles": "Nc1nc(NC2CC2)c2ncn([C@H]3C=C[C@@H](CO)C3)c2n1", "note": "[ABC]", "values": [
      {"measurement": "resistance @ level", "setting": "[2]; substitution 184 + two of (41, 67, 70, 210, 215, 219), drug level 10000", "result": 2}
    ]},
    {"smiles": "Nc1ccn([C@@H]2CS[C@H](CO)O2)c(=O)n1", "note": "[3TC]", "values": [
      {"measurement": "resistance @ level", "setting": "[2]; substitution 69SS + 215, drug level 100", "result": 2}
    ]},
    {"smiles": "Cc1ccnc2c1NC(=O)c1cccnc1N2C1CC1", "note": "[NVP]", "values": [
      {"measurement": "resistance @ level", "setting": "[2]; substitution 236, drug level 100", "result": 0}
    ]},
    {"smiles": "Cc1cn([C@H]2C=C[C@@H](CO)O2)c(=O)[nH]c1=O", "note": "[D4T]", "values": [
      {"measurement": "resistance @ level", "setting": "[2]; substitution three of (41, 67, 70, 210, 215, 219), drug level 100", "result": 1}
    ]},
    {"smiles": "Cc1cn([C@H]2C[C@H](N=[N+]=[N-])[C@@H](CO)O2)c(=O)[nH]c1=O", "note": "[ZDV]", "values": [
      {"measurement": "resistance @ level", "setting": "[2]; substitution 215Y/F + 41, drug level 100", "result": 3}
    ]},
    {"smiles": "CC(C)CN(C[C@@H](O)[C@H](Cc1ccccc1)NC(=O)O[C@H]1CCOC1)S(=O)(=O)c1ccc(N)cc1", "note": "[AMP]", "values": [
      {"measurement": "resistance @ level", "setting": "[1]; substitution 90M/I, drug level 10000", "result": 1}
    ]},
    {"smiles": "CC(C)(C)NC(=O)[C@@H]1CN(Cc2cccnc2)CCN1C[C@@H](O)C[C@@H](Cc1ccccc1)C(=O)N[C@H]1c2ccccc2C[C@H]1O", "note": "[IND]", "values": [
      {"measurement": "resistance @ level", "setting": "[1]; [3]", "result": 0},
      {"measurement": "resistance @ level", "setting": "[1]; substitution 82A/F/T/S, drug level 100", "result": 1}
    ]}
  ]
}
